Results on one molecule are retold here after publication PMC8992272, “Stabilities of Three Key Biological Trisulfides with Implications for Their Roles in the Release of Hydrogen Sulfide and Bioaccumulation of Sulfane Sulfur” (ACS Omega, 2022).

The structures appear in SMILES notation. Like-named read-outs stand apart in the source and are kept apart here. A value given as a limit tells only on which side of the number the result lay.

Usually half-life stands for how long it takes for the measured level to halve.

Format in all cases: physicochemical
Data set [1] in a line: Stability in the presence of acetonitrile, benzamide, zinc sulfate or iron sulfate, or in methanol-d4 (1H NMR). How it is done:
N-Acetylcysteine trisulfide (26.5 mg, 66 μmol) was dissolved in 600 μL of D2O. Acetonitrile (3.0 mg, 73 μmol) was added, and the ^1H NMR spectra were taken periodically to track degradation.
N-Acetylcysteine trisulfide (31.4 mg, 78 μmol) was dissolved in 600 μL of D2O. Benzamide (9.4 mg, 78 μmol) was added, and the ^1H NMR spectra were taken periodically to track degradation.
N-Acetylcysteine trisulfide (15.0 mg, 38 μmol) was dissolved in 600 μL of D2O. ZnSO4 (11.8 mg, 73 μmol) was added, and the ^1H NMR spectra were taken periodically to track degradation.
N-Acetylcysteine trisulfide (15.0 mg, 38 μmol) was dissolved in 600 μL of D2O. FeSO4·7H2O (11.6 mg, 41 μmol) was added, and the ^1H NMR spectra were taken periodically to track degradation.
N-Acetylcysteine trisulfide (32.1 mg, 80 μmol) was dissolved in 600 μL of CD3OD. The ^1H NMR spectra were taken periodically to track degradation.
Cysteine trisulfide (5.1 mg, 19 μmol) was added to 600 μL of D2O. Solution was filtered to remove undissolved particles. […] The ^1H NMR spectra were taken periodically to track degradation.
Cysteine trisulfide (6.8 mg, 25 μmol) was added to 600 μL of D2O. Solution was filtered to remove undissolved particles. […] The ^1H NMR spectra were taken periodically to track degradation.

Data set [2] can be described thus: Stability in D2O in the presence of butylamine or triethylamine, tracked by 1H NMR. On the procedure: N-Acetylcysteine trisulfide (26.5 mg, 66 μmol) was dissolved in 600 μL of D2O. Butylamine (5.0 mg, 68 μmol) was added, and the ^1H NMR spectra were taken periodically to track degradation.
N-Acetylcysteine trisulfide (26.5 mg, 66 μmol) was dissolved in 600 μL of D2O. Triethylamine (8.0 mg, 79 μmol) was added, and the ^1H NMR spectra were taken periodically to track degradation.
Cysteine trisulfide (5.5 mg, 20 μmol) was added to 600 μL of D2O. The solution was filtered to remove undissolved particles. […] The ^1H NMR spectra were taken periodically to track degradation.
Cysteine trisulfide (4.3 mg, 16 μmol) was added to 600 μL of D2O. The solution was filtered to remove undissolved particles. […] The ^1H NMR spectra were taken periodically to track degradation.
N-Acetylcysteine tetrasulfide (17.2 mg, 44 μmol) was dissolved in 600 μL of D2O. Butylamine (9.9 mg, 135 μmol) was added, and the ^1H NMR spectra were taken periodically to track degradation.
N-Acetylcysteine tetrasulfide (17.2 mg, 44 μmol) was dissolved in 600 μL of D2O. Triethylamine (13.5 mg, 135 μmol) was added, and the ^1H NMR spectra were taken periodically to track degradation.

Data set [3] in a line: Kinetics of degradation of trisulfides in the presence of a thiol (1H NMR). The following applies: water, NAC added, vial uncapped to allow H2S to evaporate, after 1 day. How it is done:
To investigate the rate of reaction of trisulfides with an added thiol and to characterize the degradation products, 5 mM trisulfides of cysteine, glutathione, and NAC were separately added to […] For instance, 5 equiv of cysteine was added to cysteine trisulfide and 5 equiv of NAC was added to NAC trisulfide. The pH was buffered to a pH of 7.0 to ensure that each trisulfide was soluble and to closely mimic in vivo pH.
Cysteine trisulfide (0.7 mg, 2.6 μmol) was dissolved in 500 μL of D2O buffered to pH 7.0, yielding a 5 mM solution. Cysteine (1.5 mg, 12.4 μmol) was added, and the ^1H NMR spectra were periodically obtained to track degradation.
Glutathione trisulfide (1.6 mg, 2.6 μmol) was added to 500 μL of D2O buffered to a pH of 7.0, yielding a 5 mM solution. Glutathione (3.8 mg, 12.4 μmol) was added, and the ^1H NMR spectra were obtained periodically to track degradation.
N-Acetylcysteine trisulfide (1.0 mg, 2.6 μmol) was dissolved in 500 μL of D2O buffered to pH 7.0, yielding a 5 mM solution. N-Acetylcysteine (2.1 mg, 12.4 μmol) was added, and the ^1H NMR spectra were obtained periodically to track degradation.
Cysteine trisulfide (0.7 mg, 2.6 μmol) was dissolved in 500 μL of D2O buffered to pH 7.0, yielding a 5 mM solution. tert-Butanol (0.8 μL, 2.6 μmol) was added as an internal standard. […]

Data set [4] in a line: Degradation in the presence of butylamine under biologically relevant conditions (37 °C, pH 7.4). The following applies: pH 7.4 D2O; for degraded: 10 mM. On the procedure: To investigate how amines degrade polysulfides in the body, NAC trisulfide was dissolved in pH 7.4 in D2O at a concentration of 10 mM. […] Butylamine was added and the reaction was maintained at body temperature (37 °C). Degradation was tracked using ^1H NMR spectroscopy (Figure 8).
N-Acetylcysteine trisulfide (14.4 mg, 36 μmol) was dissolved in 3.6 mL of D2O buffered to pH 7.4. Butylamine (11 μL, 110 μmol) was added and the contents were heated to 37 °C. The ^1H NMR spectra were taken periodically to track degradation.

In the case of `CC(=O)N[C@@H](CSSSC[C@H](NC(C)=O)C(=O)O)C(=O)O` [NAC trisulfide, N-Acetylcysteine Trisulfide], the degradation result in data set [1] (acetonitrile and benzamide added, D2O, after 8 days) is on record as “No degradation”; in data set [1] (methanol-d4, after 8 days), “no observable degradation”. The stability result in data set [1] (zinc sulfate and iron sulfate in D2O, 11 days) is listed as “stable”. Moreover, the degraded is listed as 43% in data set [2] (1 equiv butylamine, D2O, after 1 h); 92% in data set [2] (1 equiv butylamine, D2O, after 24 h); 14% in data set [2] (1 equiv triethylamine, D2O, after 1 h); 87% in data set [2] (1 equiv triethylamine, D2O, after 24 h); 45% in data set [4] (after 1 h); 81% in data set [4] (after 2 h). In data set [4] (after 1 day), the degraded is 81%. Moreover, the half-life in data set [2] (D2O with butylamine, in the presence of butylamine (abstract), read-out: half-life) is 53 min; in data set [2] (D2O with butylamine, in the presence of butylamine, D2O, early data points, read-out: estimated half-life of degradation (converted)), 56.4 min; in data set [2] (D2O with triethylamine, in the presence of triethylamine, D2O, early data points, read-out: estimated half-life of degradation (converted)) it was 132 min. Also, the “time to reach equilibrium” value in data set [2] (addition of butylamine or triethylamine) is listed as “less than 5 h”. The “tetrasulfide observed as product” value in data set [2] (both reactions (butylamine, triethylamine), D2O) was less than 3%. Besides, the trisulfide remaining result in data set [3] is recorded as “no NAC trisulfide was observed”. In addition, the half-life at 10 mM in data set [4] (D2O buffered to pH 7.4 with butylamine, early data points, read-out: estimated half-life (converted)) was 46.2 min.
